Results taken from article PMC11062922 (Nature Chemical Biology, 2023).
Where two headings read alike, the source gives them in different places.

How the values were obtained:
PRKACG [1] = target: T1, PRKACG (Homo sapiens, UniProt P22612); assay: Kinobeads full dose-response competition binding: PRKACG; conditions: Gene Name PRKACG
T1 construct: endogenous in cells

PRKACG [2] = target: T1, PRKACG; assay: Kinobeads competition binding, Lestaurtinib control replicates: PRKACG; conditions: read-out: Lestaurtinib Drugmatrix value; Gene Name PRKACG; one column per experiment number and replicate (R1-R3)
HSP90B1 = target: T2, HSP90B1 (Homo sapiens, UniProt P14625); assay: Kinobeads two-dose competition binding: HSP90B1; conditions: read-out: Lestaurtinib Drugmatrix value, Gene Name HSP90B1
T2 construct: endogenous in cells

[3] = target: T3, endogenous kinases and other proteins enriched by Kinobeads from mixed lysates of K-562, COLO-205, MV-4-11, SK-N-BE(2) and OVCAR-8 (Homo sapiens, UniProt P42345); assay: Kinobeads competition binding profiling, two doses (100 nM and 1 µM); conditions: read-out: Lestaurtinib Drugmatrix value (apparent Kd), Gene Name MTOR; target MTOR; each column = one Lestaurtinib control run_replicate;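 also: inhibitor preincubated 45 min at 4 °C in cell lysate, then bead pulldown. Bound protein quantified by label-free mass spectrometry relative to DMSO vehicle control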
T3 construct: endogenous in cells

[4] = target: T4, endogenous kinases and other proteins enriched by Kinobeads from mixed lysates of K-562, COLO-205, MV-4-11, SK-N-BE(2) and OVCAR-8 (Homo sapiens, UniProt Q15569); assay: as above; conditions: read-out: Lestaurtinib Drugmatrix value, Gene Name TESK1; target TESK1; one Lestaurtinib control experiment/replicate (R1-R3)
T4 construct: endogenous in cells

[5] = target: T5, endogenous kinases and other proteins enriched by Kinobeads from mixed lysates of K-562, COLO-205, MV-4-11, SK-N-BE(2) and OVCAR-8 (Homo sapiens, UniProt Q13882); assay: as above; conditions: read-out: Lestaurtinib Drugmatrix value, Gene Name PTK6; target PTK6; one Lestaurtinib control experiment/replicate (R1-R3)
T5 construct: endogenous in cells

[6] = target: T6, endogenous kinases and other proteins enriched by Kinobeads from mixed lysates of K-562, COLO-205, MV-4-11, SK-N-BE(2) and OVCAR-8 (Homo sapiens, UniProt Q8WZ42); assay: as above; conditions: read-out: Lestaurtinib Drugmatrix value, Gene Name TTN; target TTN; one Lestaurtinib control experiment/replicate (R1-R3)
T6 construct: endogenous in cells

ULK1 = target: T7, ULK1 (Homo sapiens, UniProt O75385); assay: Kinobeads two-dose competition binding: ULK1; conditions: read-out: Lestaurtinib Drugmatrix value, Gene Name ULK1; repeated control pulldowns; each column = experiment id and replicate (Lestaurtinib_02339_R1 ... Lestaurtinib_03260_R3)
T7 construct: to maximize the representation of endogenous proteins; endogenous in cells

EPHA2 = target: T8, EPHA2 (Homo sapiens, UniProt P29317); assay: Kinobeads two-dose competition binding: EPHA2; conditions: read-out: Lestaurtinib Drugmatrix value, Gene Name EPHA2
T8 construct: endogenous in cells

PIM1 = target: T9, PIM1 (Homo sapiens, UniProt P11309); assay: Kinobeads competition binding, Lestaurtinib control replicates: PIM1; conditions: read-out: Lestaurtinib Drugmatrix value; Gene Name PIM1; one column per experiment number and replicate (R1-R3)
T9 construct: a mixture of lysates from five cancer cell lines; endogenous in cells

PAK6 = target: T10, PAK6 (Homo sapiens, UniProt Q9NQU5); assay: Kinobeads competition binding, Lestaurtinib control replicates: PAK6; conditions: read-out: Lestaurtinib Drugmatrix value; Gene Name PAK6; one column per experiment number and replicate (R1-R3)
T10 construct: a mixture of lysates from five cancer cell lines; endogenous in cells

PRKCB = target: T11, PRKCB (Homo sapiens, UniProt P05771); assay: Kinobeads full dose-response competition binding: PRKCB; conditions: Gene Name PRKCB
T11 construct: endogenous in cells

CK2alpha1 (CSNK2A1) = target: T12, CK2alpha1 (CSNK2A1) (Homo sapiens, UniProt P68400); assay: Recombinant kinase activity assay (ProQinase, FlashPlate radiometric): CK2alpha1; type: biochemical
T12 construct: purchased ProQinase
Procedure: Kinase activity assays were performed by ProQinase. Dose-dependent activity inhibition of CDK1/cyclinB, CK2alpha1 and CK2alpha2 were measured using a FlashPlateTM-based radiometric assay at KM (ATP) of the respective kinase.

[7] = target: T13, endogenous kinases and other proteins enriched by Kinobeads from mixed lysates of K-562, COLO-205, MV-4-11, SK-N-BE(2) and OVCAR-8 (Homo sapiens, UniProt O60674); assay: Kinobeads competition binding profiling, two doses (100 nM and 1 µM); conditions: JAK2(JH1domain-catalytic);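 also: inhibitor preincubated 45 min at 4 °C in cell lysate, then bead pulldown. Bound protein quantified by label-free mass spectrometry relative to DMSO vehicle control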
T13 construct: endogenous in cells

[8] = target: T14, endogenous kinases and other proteins enriched by Kinobeads from mixed lysates of K-562, COLO-205, MV-4-11, SK-N-BE(2) and OVCAR-8 (Homo sapiens, UniProt Q9UHD2); assay: as above; conditions: TBK1
T14 construct: endogenous in cells

[9] = target: T15, endogenous kinases and other proteins enriched by Kinobeads from mixed lysates of K-562, COLO-205, MV-4-11, SK-N-BE(2) and OVCAR-8 (Homo sapiens, UniProt P51955); assay: as above; conditions: NEK2
T15 construct: endogenous in cells

[10] = target: T16, endogenous kinases and other proteins enriched by Kinobeads from mixed lysates of K-562, COLO-205, MV-4-11, SK-N-BE(2) and OVCAR-8 (Homo sapiens, UniProt Q9HC98); assay: as above; conditions: NEK6
T16 construct: endogenous in cells

[11] = target: T17, endogenous kinases and other proteins enriched by Kinobeads from mixed lysates of K-562, COLO-205, MV-4-11, SK-N-BE(2) and OVCAR-8 (Homo sapiens, UniProt P29597); assay: as above; conditions: TYK2(JH2domain-pseudokinase)
T17 construct: endogenous in cells

[12] = target: T18, endogenous kinases and other proteins enriched by Kinobeads from mixed lysates of K-562, COLO-205, MV-4-11, SK-N-BE(2) and OVCAR-8 (Homo sapiens, UniProt P49759); assay: as above; conditions: CLK1
T18 construct: endogenous in cells

[13] = EC50 with Correction, doses in nM, read-out: apparent Kd
[14] = eight-dose curve fit, doses in nM

## CCn1c(-c2nonc2N)nc2c(C#CC(C)(C)O)nc(OCCNC)cc21 [GSK949675A]
PRKACG [1]; 0.3nM compound, DMSO = 1
  Relative Intensity 0.3nM: 0.6931
PRKACG [1]; 1nM compound, DMSO = 1
  Relative Intensity 1nM: 0.8057
PRKACG [1]; 3nM compound, DMSO = 1
  Relative Intensity 3nM: 0.9707
PRKACG [1]; 10nM compound, DMSO = 1
  Relative Intensity 10nM: 0.8006
PRKACG [1]; 30nM compound, DMSO = 1
  Relative Intensity 30nM: 0.7952
PRKACG [1]; 100nM compound, DMSO = 1
  Relative Intensity 100nM: 0.9305
PRKACG [1]; 300nM compound, DMSO = 1
  Relative Intensity 300nM: 0.645
PRKACG [1]; 1000nM compound, DMSO = 1
  Relative Intensity 1000nM: 0.4141
PRKACG [1]; [13]
  Kd: 262 nM
PRKACG [1]; [14]
  EC50: 303 nM

## C[C@]12O[C@H](C[C@]1(O)CO)n1c3ccccc3c3c4c(c5c6ccccc6n2c5c31)CNC4=O [Lestaurtinib]
PRKACG [2]
  potency estimated from few doses: 769 nM
HSP90B1
  potency estimated from few doses: 979 nM
[3]
  potency estimated from few doses: 482 nM
[4]
  potency estimated from few doses: 622 nM
[5]
  potency estimated from few doses: 533 nM
[6]
  potency estimated from few doses: 737 nM
ULK1
  potency estimated from few doses: 549 nM
EPHA2
  potency estimated from few doses: 428 nM
PIM1
  potency estimated from few doses: 860 nM
PAK6
  potency estimated from few doses: 151 nM

## CCn1c(-c2nonc2N)nc2c(C#CC(C)(C)O)nc(OCCN)cc21 [GSK902056A]
PRKCB; 0.3nM compound, DMSO = 1
  Relative Intensity 0.3nM: 1.022
PRKCB; 1nM compound, DMSO = 1
  Relative Intensity 1nM: 1.013
PRKCB; 3nM compound, DMSO = 1
  Relative Intensity 3nM: 1.059
PRKCB; 10nM compound, DMSO = 1
  Relative Intensity 10nM: 1.038
PRKCB; 30nM compound, DMSO = 1
  Relative Intensity 30nM: 0.9653
PRKCB; 100nM compound, DMSO = 1
  Relative Intensity 100nM: 0.9
PRKCB; 300nM compound, DMSO = 1
  Relative Intensity 300nM: 0.7943
PRKCB; 1000nM compound, DMSO = 1
  Relative Intensity 1000nM: 0.5993
PRKCB; [13]
  Kd: 401 nM
PRKCB; [14]
  EC50: 410 nM

## COc1cc(Nc2ncc3c(C)nc(-c4cc5ccccc5[nH]4)n3n2)cc(OC)c1OC [GW869516X]
CK2alpha1 (CSNK2A1); Enzyme CK2alpha1, Highest Assay Concentration 1.00E-06 M, read-out: IC50
  IC50: 85.1 nM
CK2alpha1 (CSNK2A1); recombinant kinase activity assay at KM (ATP), read-out: Activity IC50 CSNK2A1
  IC50: 85 nM
[7]
  Kinobeads Data: no target
[8]
  Kinobeads Data: no target
[9]
  Kinobeads Data: no target
[10]
  Kinobeads Data: no target
[11]
  Kinobeads Data: no target
[12]
  Kinobeads Data: no target
